Where two headings read alike, the source gives them in different places. Values belong to the compound of their own block, whether it stands above or below them.
Columns and labels:
[1] = test system: NSCLC patients; settings: cited from earlier work
[2] = biological target: wild-type EGFR (WT-EGFR) (Homo sapiens, UniProt P00533); settings: major metabolite of AZD9291; cited from earlier work
[3] = Hygroscopicity of crystalline Form I on storage at 25° C., 80% relative humidity; type: physicochemical
[4] = Solid-state stability of Form I under thermal treatment and mechanical grinding (XRPD); type: physicochemical
Procedure: POWDER X-RAY DIFFRACTION (XRPD): The solid samples from screening were examined using X-ray diffractometer (Bruker D8 advance). The system is equipped with LynxEye detector. The samples were scanned from 3 to 40° 2θ, at a step size 0.02° 2θ. The tube voltage and current were 40 KV and 40 mA, respectively. The sample was transferred from sample container onto zero background XRD-holder and gently ground.
DSC ANALYSIS: DSC analysis was conducted on a TA Instruments Q200. The calibration standard was indium. A sample in weight was placed into a TA DSC pan, and weight accurately recorded. Crimped pans were used for analysis and the samples were heated under nitrogen (50 mi/min) at a rate of 10° C./min, up to a final temperature.

wild-type EGFR (WT-EGFR), sequence (P00533 25-1210): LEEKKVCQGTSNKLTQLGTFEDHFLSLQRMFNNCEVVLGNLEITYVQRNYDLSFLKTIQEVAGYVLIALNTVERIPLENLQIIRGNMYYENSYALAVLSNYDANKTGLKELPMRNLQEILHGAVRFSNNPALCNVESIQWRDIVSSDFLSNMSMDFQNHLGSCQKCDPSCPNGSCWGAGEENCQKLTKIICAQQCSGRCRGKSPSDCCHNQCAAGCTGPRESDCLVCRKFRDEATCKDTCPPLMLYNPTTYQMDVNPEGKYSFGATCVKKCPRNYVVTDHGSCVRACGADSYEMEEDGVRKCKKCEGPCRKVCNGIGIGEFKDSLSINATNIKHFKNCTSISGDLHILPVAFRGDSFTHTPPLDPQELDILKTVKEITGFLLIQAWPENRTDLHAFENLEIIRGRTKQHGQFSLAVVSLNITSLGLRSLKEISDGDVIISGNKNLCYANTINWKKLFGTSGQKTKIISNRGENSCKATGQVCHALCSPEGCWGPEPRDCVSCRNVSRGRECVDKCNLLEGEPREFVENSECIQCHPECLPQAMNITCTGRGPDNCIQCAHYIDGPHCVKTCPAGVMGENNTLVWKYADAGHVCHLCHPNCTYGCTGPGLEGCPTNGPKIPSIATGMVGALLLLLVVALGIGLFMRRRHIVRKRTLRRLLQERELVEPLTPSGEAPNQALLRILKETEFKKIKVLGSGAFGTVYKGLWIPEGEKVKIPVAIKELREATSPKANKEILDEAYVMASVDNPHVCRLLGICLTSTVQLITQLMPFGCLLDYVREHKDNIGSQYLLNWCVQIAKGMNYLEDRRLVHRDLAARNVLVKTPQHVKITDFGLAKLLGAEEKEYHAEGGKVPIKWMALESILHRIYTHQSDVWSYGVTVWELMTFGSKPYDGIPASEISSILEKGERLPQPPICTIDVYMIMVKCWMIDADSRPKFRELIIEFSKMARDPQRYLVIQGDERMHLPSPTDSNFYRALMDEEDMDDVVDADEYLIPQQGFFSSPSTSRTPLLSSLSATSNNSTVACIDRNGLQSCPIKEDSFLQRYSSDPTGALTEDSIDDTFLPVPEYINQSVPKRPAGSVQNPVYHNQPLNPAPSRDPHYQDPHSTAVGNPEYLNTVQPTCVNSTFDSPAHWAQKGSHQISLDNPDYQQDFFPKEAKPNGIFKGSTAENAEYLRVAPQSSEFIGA

SMILES: C#Cc1cccc(Nc2ncnc3cc(OCCOC)c(OCCOC)cc23)c1 [erlotinib]
share of patients in whom the drug has effect ([1]; Asian NSCLC patients): about 35% | share of patients in whom the drug has effect ([1]; Caucasian patients with NSCLC): about 10%

SMILES: COc1cc2ncnc(Nc3ccc(F)c(Cl)c3)c2cc1OCCCN1CCOCC1 [gefitinib]
share of patients in whom the drug has effect ([1]; Asian NSCLC patients): about 35% | share of patients in whom the drug has effect ([1]; Caucasian patients with NSCLC): about 10%

SMILES: C=CC(=O)Nc1cc(Nc2nccc(-c3c[nH]c4ccccc34)n2)c(OC)cc1N(C)CCN(C)C [AZ5104]
inhibitory effect on wild-type EGFR [2]: strong inhibitory effect

increase in weight upon storing ([3]; 25° C., relative humidity of 80%): only negligible increase in weight | hygroscopicity ([3]; crystalline Form I): non-hygroscopic | crystallinity after mechanical grinding ([4]; Form I grinded mechanically): some loss of crystallinity | solid form after thermal treatment ([4]; crystals heated in DSC cells to 220° C., then immediately placed into ice (quench), XRPD): converted into an amorphous form
SMILES: C=CC(=O)Nc1cc(Nc2nccc(-c3cn(CC(F)(F)F)c4ccccc34)n2)c(OC)cc1N(C)CCN(C)C [Compound 5, N-(2-((2-(dimethylamino)ethyl)(methyl)amino)-4-methoxy-5-((4-(1-(2,2,2-trifluoroethyl)-1H-indol-3-yl)pyrimidin-2-yl)amino)phenyl)acrylamide monomesylate]
